Test results from the NIST ThermoML archive (doi:10.1016/j.tca.2018.11.018).
± gives the expanded uncertainty stated by the source.

Assay: xn = mol fraction of the nth substance listed
Details: 100 kPa, Liquid; for viscosity: Falling or rolling sphere viscometry; for mass density: Vibrating tube method

CC[N+]1(C)CCCCC1.[Br-] [N-ethyl-N-methylpiperidinium bromide] + O
Details | mass density [kg/m3] | viscosity [mPa·s]
298.15 K, x1 = 0.02 | 1042.3 ± 1 | 1.263 ± 0.076
298.15 K, x1 = 0.046 | 1088.3 ± 1 | 2.026 ± 0.12
298.15 K, x1 = 0.065 | 1116.9 ± 1 | 2.813 ± 0.17
298.15 K, x1 = 0.085 | 1141.4 ± 1 | 3.992 ± 0.24
298.15 K, x1 = 0.11 | 1167.4 ± 1.1 | 6.16 ± 0.37
298.15 K, x1 = 0.14 | 1192.2 ± 1.1 | 11.35 ± 0.69
298.15 K, x1 = 0.18 | 1217.8 ± 1.1 | 20.55 ± 1.2
298.15 K, x1 = 0.221 | 1237.8 ± 1.2 | 36.06 ± 2.2
298.15 K, x1 = 0.27 | 1255.2 ± 1.3 | 68.76 ± 4.2
298.15 K, x1 = 0.321 | 1268.9 ± 1.5 | 135.3 ± 9.2
303.15 K, x1 = 0.02 | 1040.5 ± 1 | 1.124 ± 0.068
303.15 K, x1 = 0.046 | 1085.9 ± 1 | 1.783 ± 0.11
303.15 K, x1 = 0.065 | 1114.2 ± 1 | 2.444 ± 0.15
303.15 K, x1 = 0.085 | 1138.5 ± 1 | 3.419 ± 0.21
303.15 K, x1 = 0.11 | 1164.3 ± 1.1 | 5.175 ± 0.31
303.15 K, x1 = 0.14 | 1189 ± 1.1 | 9.449 ± 0.57
303.15 K, x1 = 0.18 | 1214.4 ± 1.1 | 16.67 ± 1
303.15 K, x1 = 0.221 | 1234.4 ± 1.2 | 28.38 ± 1.7
303.15 K, x1 = 0.27 | 1251.8 ± 1.3 | 51.92 ± 3.1
303.15 K, x1 = 0.321 | 1265.5 ± 1.4 | 98.65 ± 6.3
308.15 K, x1 = 0.02 | 1038.6 ± 1 | 1.011 ± 0.061
308.15 K, x1 = 0.046 | 1083.5 ± 1 | 1.59 ± 0.096
308.15 K, x1 = 0.065 | 1111.5 ± 1 | 2.147 ± 0.13
308.15 K, x1 = 0.085 | 1135.5 ± 1 | 2.967 ± 0.18
308.15 K, x1 = 0.11 | 1161.2 ± 1.1 | 4.41 ± 0.27
308.15 K, x1 = 0.14 | 1185.7 ± 1.1 | 7.861 ± 0.48
308.15 K, x1 = 0.18 | 1211 ± 1.1 | 13.6 ± 0.82
308.15 K, x1 = 0.221 | 1230.9 ± 1.2 | 22.48 ± 1.4
308.15 K, x1 = 0.27 | 1248.4 ± 1.3 | 39.91 ± 2.4
308.15 K, x1 = 0.321 | 1262.1 ± 1.4 | 73.14 ± 4.5
313.15 K, x1 = 0.02 | 1036.4 ± 1 | 0.915 ± 0.055
313.15 K, x1 = 0.046 | 1081.1 ± 1 | 1.421 ± 0.086
313.15 K, x1 = 0.065 | 1108.7 ± 1 | 1.901 ± 0.12
313.15 K, x1 = 0.085 | 1132.5 ± 1 | 2.595 ± 0.16
313.15 K, x1 = 0.11 | 1158 ± 1 | 3.8 ± 0.23
313.15 K, x1 = 0.14 | 1182.3 ± 1.1 | 6.584 ± 0.4
313.15 K, x1 = 0.18 | 1207.5 ± 1.1 | 11.17 ± 0.68
313.15 K, x1 = 0.221 | 1227.4 ± 1.2 | 18.06 ± 1.1
313.15 K, x1 = 0.27 | 1244.9 ± 1.3 | 31 ± 1.9
313.15 K, x1 = 0.321 | 1258.6 ± 1.4 | 54.37 ± 3.3
318.15 K, x1 = 0.02 | 1034.1 ± 1 | 0.834 ± 0.05
318.15 K, x1 = 0.046 | 1078.7 ± 1 | 1.279 ± 0.077
318.15 K, x1 = 0.065 | 1105.9 ± 1 | 1.697 ± 0.1
318.15 K, x1 = 0.085 | 1129.5 ± 1 | 2.287 ± 0.14
318.15 K, x1 = 0.11 | 1154.8 ± 1 | 3.301 ± 0.2
318.15 K, x1 = 0.14 | 1178.9 ± 1.1 | 5.574 ± 0.34
318.15 K, x1 = 0.18 | 1204.1 ± 1.1 | 9.251 ± 0.56
318.15 K, x1 = 0.221 | 1223.9 ± 1.2 | 14.7 ± 0.89
318.15 K, x1 = 0.27 | 1241.4 ± 1.3 | 24.63 ± 1.5
318.15 K, x1 = 0.321 | 1255.2 ± 1.4 | 42.07 ± 2.6
323.15 K, x1 = 0.02 | 1031.6 ± 1 | 0.767 ± 0.046
323.15 K, x1 = 0.046 | 1075.9 ± 1 | 1.162 ± 0.07
323.15 K, x1 = 0.065 | 1102.9 ± 1 | 1.522 ± 0.092
323.15 K, x1 = 0.085 | 1126.3 ± 1 | 2.045 ± 0.12
323.15 K, x1 = 0.11 | 1151.5 ± 1 | 2.895 ± 0.17
323.15 K, x1 = 0.14 | 1175.5 ± 1.1 | 4.742 ± 0.29
323.15 K, x1 = 0.18 | 1200.6 ± 1.1 | 7.76 ± 0.47
323.15 K, x1 = 0.221 | 1220.4 ± 1.2 | 12.15 ± 0.74
323.15 K, x1 = 0.27 | 1237.9 ± 1.3 | 19.99 ± 1.2
323.15 K, x1 = 0.321 | 1251.8 ± 1.4 | 33.03 ± 2
328.15 K, x1 = 0.02 | 1029 ± 1 | 0.709 ± 0.043
328.15 K, x1 = 0.046 | 1073 ± 1 | 1.063 ± 0.064
328.15 K, x1 = 0.065 | 1099.9 ± 1 | 1.378 ± 0.083
328.15 K, x1 = 0.085 | 1123.1 ± 1 | 1.83 ± 0.11
328.15 K, x1 = 0.11 | 1148.1 ± 1 | 2.563 ± 0.15
328.15 K, x1 = 0.14 | 1172.1 ± 1.1 | 4.087 ± 0.25
328.15 K, x1 = 0.18 | 1197 ± 1.1 | 6.616 ± 0.4
328.15 K, x1 = 0.221 | 1216.9 ± 1.2 | 10.15 ± 0.62
328.15 K, x1 = 0.27 | 1234.4 ± 1.3 | 16.44 ± 1
328.15 K, x1 = 0.321 | 1248.3 ± 1.4 | 26.76 ± 1.6
333.15 K, x1 = 0.02 | 1026.3 ± 1 | 0.656 ± 0.04
333.15 K, x1 = 0.046 | 1070.2 ± 1 | 0.976 ± 0.059
333.15 K, x1 = 0.065 | 1096.7 ± 1 | 1.249 ± 0.076
333.15 K, x1 = 0.085 | 1119.9 ± 1 | 1.65 ± 0.1
333.15 K, x1 = 0.11 | 1144.7 ± 1 | 2.285 ± 0.14
333.15 K, x1 = 0.14 | 1168.6 ± 1.1 | 3.555 ± 0.21
333.15 K, x1 = 0.18 | 1193.5 ± 1.1 | 5.691 ± 0.34
333.15 K, x1 = 0.221 | 1213.4 ± 1.2 | 8.658 ± 0.53
333.15 K, x1 = 0.27 | 1230.9 ± 1.3 | 13.81 ± 0.84
333.15 K, x1 = 0.321 | 1244.9 ± 1.4 | 21.95 ± 1.3
338.15 K, x1 = 0.02 | 1023.5 ± 1 | 0.616 ± 0.037
338.15 K, x1 = 0.046 | 1067.1 ± 1 | 0.9 ± 0.054
338.15 K, x1 = 0.065 | 1093.5 ± 1 | 1.142 ± 0.069
338.15 K, x1 = 0.085 | 1116.9 ± 1 | 1.495 ± 0.09
338.15 K, x1 = 0.11 | 1141.4 ± 1 | 2.046 ± 0.12
338.15 K, x1 = 0.14 | 1165.1 ± 1.1 | 3.13 ± 0.19
338.15 K, x1 = 0.18 | 1189.9 ± 1.1 | 4.925 ± 0.3
338.15 K, x1 = 0.221 | 1209.8 ± 1.2 | 7.418 ± 0.45
338.15 K, x1 = 0.27 | 1227.4 ± 1.3 | 11.66 ± 0.71
338.15 K, x1 = 0.321 | 1241.4 ± 1.4 | 18.17 ± 1.1
343.15 K, x1 = 0.02 | 1020.4 ± 1 | 0.579 ± 0.035
343.15 K, x1 = 0.046 | 1063.9 ± 1 | 0.835 ± 0.05
343.15 K, x1 = 0.065 | 1090.3 ± 1 | 1.05 ± 0.064
343.15 K, x1 = 0.085 | 1113.8 ± 1 | 1.363 ± 0.082
343.15 K, x1 = 0.11 | 1137.9 ± 1 | 1.845 ± 0.11
343.15 K, x1 = 0.14 | 1161.5 ± 1.1 | 2.616 ± 0.16
343.15 K, x1 = 0.18 | 1186.3 ± 1.1 | 4.343 ± 0.26
343.15 K, x1 = 0.221 | 1206.2 ± 1.2 | 6.433 ± 0.39
343.15 K, x1 = 0.27 | 1223.9 ± 1.3 | 10.03 ± 0.61
343.15 K, x1 = 0.321 | 1238 ± 1.4 | 15.35 ± 0.94
348.15 K, x1 = 0.02 | 1016.6 ± 1 | 0.548 ± 0.033
348.15 K, x1 = 0.046 | 1060.6 ± 1 | 0.778 ± 0.047
348.15 K, x1 = 0.065 | 1087 ± 1 | 0.967 ± 0.058
348.15 K, x1 = 0.085 | 1110.3 ± 1 | 1.247 ± 0.075
348.15 K, x1 = 0.11 | 1134.3 ± 1 | 1.67 ± 0.1
348.15 K, x1 = 0.14 | 1157.9 ± 1.1 | 2.352 ± 0.14
348.15 K, x1 = 0.18 | 1182.7 ± 1.1 | 3.798 ± 0.23
348.15 K, x1 = 0.221 | 1202.6 ± 1.2 | 5.613 ± 0.34
348.15 K, x1 = 0.27 | 1220.3 ± 1.3 | 8.668 ± 0.53
348.15 K, x1 = 0.321 | 1234.5 ± 1.4 | 13.11 ± 0.8
